The results in this text go back to publication PMC6851324, “Design and development of stapled transmembrane peptides that disrupt the activity of G-protein–coupled receptor oligomers” (The Journal of Biological Chemistry, 2019).

Where two headings read alike, the source gives them in different places. Where a SMILES comes first, the peptide text is derived from it. Bridges are numbered along the chain shown (N, C = ends). [ ]: non-standard residue; d: D form. S5 = C=CCCC[C@](C)(N)C(=O)O; Nle = CCCC[C@H](N)C(=O)O

Data set [1] addresses T1, α-chymotrypsin from bovine pancreas (Bos taurus, UniProt P00766, DEL14-15/DEL147-148).
T1 construct: purchased Sigma Type II; host or cells: bovine pancreas
In words: Proteolytic stability against chymotrypsin. As to conditions: for half-life at 55.5 μM: cattle, isolated enzyme chymotrypsin. The data set is classed as in vitro ADME. Here is the method: (§1) Figure 4. Biophysical analysis of stapled peptides. A, amino acid sequence alignment of the targeted TM regions and disrupting peptides. Cys residues are in the reduced state. Blue bridges indicate the stapled amino acid residues. […] Yields, purity, and MALDI-TOF data are shown for the stapled peptides and negative control. B, CD analysis of 30–50 μM peptides at 20 °C. For proteolytic stability studies, the peptide solution (55.5 μM for trypsin and chymotrypsin and 11.1 μM for serum) was incubated in the presence of 0.55 μg/ml trypsin from porcine pancreas (E), α-chymotrypsin (F), or mouse serum (G) at 37 °C for the indicated times (indicated on the x axis). Data are mean ± S.E. (error bars) (n = 3) percentage of intact peptide normalized to t = 0. Proteolytic half-lives and putative cleavage sites (predicted using the Expasy bioinformatics server's model with a 50% probability of cleavage) are indicated at the bottom of each panel. Positive correlation between helicity and half-life in trypsin/chymotrypsin (C) or serum (D) was determined by two-tailed Pearson's correlation test. TEXT PRINTED IN THE PICTURE: (B) TM7-TAT: Ellipticity (%): 3.4 | (B) TM6-TAT: Ellipticity (%): 18.3 | (B) TM5-TAT: Ellipticity (%): 20.9 | (B) 8: Ellipticity (%): 58.3 | (B) 9: Ellipticity (%): 46.4 | (B) 10: Ellipticity (%): 36.8 | (B) 11: Ellipticity (%): 46 | (E) TM7-TAT: Half-life (min): 21; #Cleavage sites: 8 | (E) TM6-TAT: Half-life (min): 40; #Cleavage sites: 7 | (E) TM5-TAT: Half-life (min): 33; #Cleavage sites: 8 | (E) 8: Half-life (min): 307; #Cleavage sites: 0 | (E) 9: Half-life (min): 178; #Cleavage sites: 0 | (E) 10: Half-life (min): 75; #Cleavage sites: 6 | (E) 11: Half-life (min): 84; #Cleavage sites: 0 | (F) TM7-TAT: Half-life (min): 22; #Cleavage sites: 6 | (F) TM6-TAT: Half-life (min): 32; #Cleavage sites: 7 | (F) TM5-TAT: Half-life (min): 28; #Cleavage sites: 7 | (F) 8: Half-life (min): 425; #Cleavage sites: 4 | (F) 9: Half-life (min): 198; #Cleavage sites: 3 | (F) 10: Half-life (min): 63; #Cleavage sites: 2 | (F) 11: Half-life (min): 79; #Cleavage sites: 4 | (G) TM7-TAT: Half-life (hours): 0.46 | (G) TM6-TAT: Half-life (hours): 0.55 | (G) TM5-TAT: Half-life (hours): 0.81 | (G) 8: Half-life (hours): ≥18 | (G) 9: Half-life (hours): 14.7 | (G) 10: Half-life (hours): 11.7 | (G) 11: Half-life (hours): 5.3 DOUBTS OF THE COPYIST ABOUT THIS PICTURE: Panel A table (Yield, Rt, Purity, [M+H+] calc., [M+H+] Peak Found for 7-11) left out as synthesis and mass-spectrum characterisation data; uncertain whether [M+H+] calc. should count as a molecular weight
(§2) Dose–response curves were fitted using a four-parameter logistic nonlinear regression mode. Peptide stability data were fitted using a nonlinear regression mode for dissociation kinetics. All statistical tests, curve fitting, and graphing were performed using GraphPad Prism 8 (GraphPad Software, La Jolla, CA).
To 100 μl of peptide solution (100 μM, dissolved in ammonium bicarbonate buffer, pH 7.5), 60 μl of ammonium bicarbonate buffer (pH 7.5) was added, together with 20 μl of temperature-equilibrated (37 ± 1 °C) α-chymotrypsin (5 μg/ml) from bovine pancreas (Sigma, Type II, activity > 40 units/mg protein). Peptides were incubated for 15, 30, 60, 120, 240, and 480 min, and then MeOH (HPLC grade) + 0.05% TFA was added. The samples were then centrifuged (15,000 rpm), and supernatant was analyzed in a similar manner as described above. The experiment was repeated twice on different days.

Data set [2] deals with T2, trypsin from porcine pancreas (Sus scrofa, UniProt P00761).
T2 construct: purchased Sigma; host or cells: porcine pancreas
In words: Proteolytic stability against trypsin. Conditions: for half-life at 55.5 μM: pig, isolated enzyme trypsin. The data set is classed as in vitro ADME. As for the experimental part:
as §1, §2
To 100 μl of peptide solution (100 μM, dissolved in ammonium bicarbonate buffer, pH 7.5), 60 μl of ammonium bicarbonate buffer (pH 7.5) was added, together with 20 μl of temperature-equilibrated (37 ± 1 °C) trypsin (5 μg/ml) from porcine pancreas (Sigma, 13,000–20,000 BAEE units/mg of protein). Peptides were incubated for 15, 30, 60, 120, 240, and 480 min, and then MeOH (HPLC Grade) + 0.05% TFA was added. The samples were then centrifuged (15,000 rpm), and the supernatant was analyzed, using Fmoc-Gly (10 μl, 0.2 mM) as an internal standard. The digestion at each time point was repeated three times to give the average values along with S.D. The amount of intact peptide that remained in the mixture was quantified by RP-HPLC. The experiment was repeated twice on different days.

Data set [3] deals with T3, 5-HT2AR–CB1R heteromers (Homo sapiens, UniProt P28223).
T3 construct: expressed in transfected cells; host or cells: HEK293 (ATCC CRL-1573), transient reverse transfection
Put plainly: NanoBiT BiLC peptide screening assay (LgBiT–CB1R + SmBiT–5-HT2AR). The data set is classed as cell-based. As to conditions: HEK293 cells transiently expressing LgBiT–CB1R and SmBiT–5-HT2AR, preincubated 1 h with 4 μM peptide, luminescence normalized to vehicle, n ≥ 5. As for the experimental part: Figure 5. Identification of a small-stapled TM peptide disrupting 5-HT2AR–CB1R heteromers. A, schematic representation of the NanoBiT assay using N-terminally labeled constructs. In B, HEK293 cells transiently expressing the LgBT–CB1R and SmBiT–5-HT2AR complementary pairs were preincubated for 1 h at 37 °C with the indicated peptides (4 μM) or vehicle prior to luminescence recording. Data are mean RLU ± S.E. (error bars) (n ≥ 5) percentage of luminescence normalized to vehicle-treated cells. Statistical significance was evaluated by one-way ANOVA followed by Bonferroni post hoc tests, indicating significant differences over vehicle-treated cells (***, p ≤ 0.001; ****, p ≤ 0.0001) and for peptide 10 over its related peptides (####, p ≤ 0.0001). Peptide 10 potency (C) was evaluated as in A over increasing peptide concentrations (bottom) (n = 3). Alternatively, to assess the kinetics of the peptide 10–driven heteromer disruption (D), prior to the administration of the peptide, the cells were preincubated with substrate, and the luminescence was recorded over the following 30 min. Data are mean RLU ± S.E. (n ≥ 3) percentage of luminescence normalized to vehicle-treated cells.
To assess GPCR protein–protein interactions with the NanoBiT technology, HEK293 cells (50,000 cells/well) were seeded in poly-D-lysine–coated white clear bottom 96-well plates and reverse-transfected (see above) with the plasmids encoding the complementary NanoBiT hemiprotein fragments. For orientation screenings, cells were transfected with two different concentrations (50 and 100 ng/well) of each receptor alone or in combination with the investigated partner (see figure legends) in the presence of empty vector (pcDNA3.1(+)) to normalize the total amount of DNA/well. For studies in the presence of increasing nontagged receptor competitors, 100 ng of each receptor pair (CB1R LgBiT + CB1R SmBiT, 5-HT2AR LgBiT + 5-HT2AR SmBiT, and 5-HT2AR LgBiT + CB1R SmBiT) were co-transfected with increasing concentrations of the different nontagged constructs (from 0 to 300 ng/well), and the total amounts of DNA/well were normalized with empty vector (pcDNA3.1(+)). For the screening of stapled peptides, 50 ng/well of both LgBiT CB1R and SmBiT 5-HT2AR were reverse-transfected as detailed previously. 24 h post- transfection, the cell culture medium was removed, and the cells were starved in FBS-free DMEM for 4 h at 37 °C in a 5% CO2 humidified atmosphere. The cell culture medium was replaced by 100 μl of NanoBiT assay buffer (same as for cAMP measurements), and the plates were pre-equilibrated for 1 h at RT in the dark. When peptide pretreatment was required, peptides were added over this pre-equilibration step, except when studying inhibition kinetics, when the peptides were administered immediately after the baseline luminescence recording. 25 μl/well of a 5× solution of the Nano-Glo® live cell reagent containing the cell-permeable furimazine substrate dissolved in Nano-Glo® LCS dilution buffer were added, and the luminescence was immediately monitored in CLARIOstar® Multimode Plate Reader (BMG Labtech) with no lens (1-s integration time/well for 1 h every minute).
as §2

Data set [4] can be described thus: Stability in mouse serum. The class given is in vitro ADME. As to conditions: 11.1 μM peptide, fresh nonsterile mouse serum (200 μl serum + 25 μl peptide solution, pH 7.5 buffer with 10% DMSO), 37 °C, quench 15% TCA in acetonitrile, HPLC, n = 3; read-out: Half-life (hours), mouse serum (converted). Here is the method:
as §1, §2
To 200 μl of fresh nonsterile mouse serum was added 25 μl of peptide solution (100 μM, dissolved in ammonium bicarbonate buffer, pH 7.5, containing 10% DMSO), and the mixture was incubated at 37 °C. At the specified time, an aliquot of incubation mixture was withdrawn and quenched by the addition of an equal volume of 15% TCA in acetonitrile to precipitate out serum proteins over ice for 30 min. The mixture was then centrifuged at 13,500 rpm for 10 min, and the supernatant was collected and analyzed by HPLC in a similar manner as described previously. The experiment was repeated twice on different days.

T2 sequence (P00761 9-231): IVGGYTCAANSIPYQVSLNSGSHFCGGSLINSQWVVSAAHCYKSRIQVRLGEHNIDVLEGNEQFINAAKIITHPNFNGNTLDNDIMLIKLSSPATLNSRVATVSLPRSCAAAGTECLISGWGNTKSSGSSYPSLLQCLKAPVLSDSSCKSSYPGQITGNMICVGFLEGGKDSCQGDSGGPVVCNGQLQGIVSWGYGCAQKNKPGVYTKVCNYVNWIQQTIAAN
T3 sequence (P28223 2-471, one chain of several): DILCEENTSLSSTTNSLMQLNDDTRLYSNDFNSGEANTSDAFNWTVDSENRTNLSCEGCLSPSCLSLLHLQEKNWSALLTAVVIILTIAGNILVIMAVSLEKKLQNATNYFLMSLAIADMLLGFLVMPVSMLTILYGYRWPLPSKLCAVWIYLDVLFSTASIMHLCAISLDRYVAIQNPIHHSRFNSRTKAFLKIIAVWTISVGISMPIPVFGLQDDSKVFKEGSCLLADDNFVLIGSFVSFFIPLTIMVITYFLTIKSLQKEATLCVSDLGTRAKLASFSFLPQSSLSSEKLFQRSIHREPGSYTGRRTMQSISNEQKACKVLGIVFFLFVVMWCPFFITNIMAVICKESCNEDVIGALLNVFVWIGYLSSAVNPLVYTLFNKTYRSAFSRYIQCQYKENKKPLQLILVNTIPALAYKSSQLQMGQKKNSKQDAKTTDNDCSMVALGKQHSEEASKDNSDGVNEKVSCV

`CCCC[C@@H]1NC(=O)[C@H](Cc2ccc(O)cc2)NC(=O)[C@@](C)(NC(=O)[C@H](Cc2ccc(O)cc2)NC(=O)[C@@H](N)C(C)C)CCC/C=C\CCC[C@@](C)(C(=O)N[C@H](C(=O)N[C@@H](CC(C)C)C(=O)N[C@@H](Cc2c[nH]c3ccccc23)C(N)=O)[C@@H](C)CC)NC1=O` [Peptide 9] (H-VY[S5]Y[Nle][S5]ILW-NH2; staple (Z) 3-6): in data set [1] (pH 7.5), the half-life at 55.5 μM is 198 min and the “half-life in chymotrypsin as stated in text” value lay in the range of 5 to 6 h. This compound also showed a half-life at 55.5 μM in data set [2] (pH 7.5, Half-life (min), trypsin) of 178 min. The “effect on NanoBiT luminescence (heteromer disruption)” value in data set [3] is “neither the version lacking the TAT amino acid sequence, compound 9, nor the nonstaple, compound 11, peptides induced any change”.

As for `CCCC[C@@H]1NC(=O)[C@H](Cc2ccc(O)cc2)NC(=O)[C@@](C)(NC(=O)[C@H](Cc2ccc(O)cc2)NC(=O)[C@@H](N)C(C)C)CCCC=CCCC[C@@](C)(C(=O)N[C@@H](CC(C)C)C(=O)N[C@@H](Cc2c[nH]c3ccccc23)C(=O)NCC(=O)N[C@@H](CCCNC(=N)N)C(=O)N[C@@H](CCCCN)C(=O)N[C@@H](CCCCN)C(=O)N[C@@H](CCCNC(=N)N)C(=O)N[C@@H](CCCNC(=N)N)C(=O)N[C@@H](CCC(N)=O)C(=O)N[C@@H](CCCNC(=N)N)C(=O)N[C@@H](CCCNC(=N)N)C(=O)N[C@@H](CCCNC(=N)N)C(N)=O)NC(=O)[C@H](Cc2ccc(O)cc2)NC1=O` [Peptide 10] (H-VY[S5]Y[Nle]Y[S5]LWGRKKRRQRRR-NH2; staple 3-7), the half-life at 11.1 μM in data set [4] is 11.7 h. Besides, the half-life at 55.5 μM in data set [1] (55.5 μM peptide, 0.55 μg/ml α-chymotrypsin from bovine pancreas, ammonium bicarbonate buffer pH 7.5, 37 °C, 15–480 min, intact peptide by RP-HPLC, n = 3, nonlinear regression fit, read-out: Half-life (min), α-chymotrypsin) was determined as 63 min; in data set [2] (55.5 μM peptide, 0.55 μg/ml trypsin from porcine pancreas, ammonium bicarbonate buffer pH 7.5, 37 °C, 15–480 min, intact peptide by RP-HPLC (Fmoc-Gly internal standard), n = 3, nonlinear regression fit, read-out: Half-life (min), trypsin) it was 75 min. Also, the “chymotrypsin resistance improvement over full-length TM-TAT peptides” value in data set [1] (versus full-length TM7-TAT, TM6-TAT and TM5-TAT) was approximately 2 fold. In data set [2] (versus TM7-TAT, TM6-TAT and TM5-TAT control peptides, trypsin 0.55 μg/ml), the “enhancement in trypsin resistance (half-life) over control peptides” value is 2–3 fold.

By half-life is commonly meant the time in which the quantity being followed falls by half.
